pEC50, pIC50: −log10 of the molar value.
How the values were obtained:
VCaP cells = test: VCaP growth inhibition assay; assay type: cell-based; conditions: 30 pM R1881, 9 days, CTG
Method in brief: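 Growth read by CTG luminescence after 9-day exposure to compound (final 100 nM–10 fM, 1:5 steps) plus 30 pM R1881, in phenol red-free DMEM with 5% CSS. Cells pre-incubated 72 h before dosing; IC50 by nonlinear 4-parameter regression.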

AR / CBP ternary complex = test: Ternary complex formation assay (sandwich ELISA, AR capture / CBP detection) in VCaP cell lysates; assay type: cell-based; conditions: 1.5 hours treatment, sandwich ELISA (AR capture, CBP or p300 detection)
Method in brief: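 Anti-AR (AR 441)-coated plates capture AR from lysates of VCaP cells grown ≥3 days at 50K/well in 5% charcoal-stripped FBS, dosed with bifunctional for 1.5 h and lysed 30 min at 4 °C. Co-captured CBP/p300 is probed with rabbit mAb and HRP anti-rabbit, then QuantaRed fluorescence (570/585) is read at 0, 5 and 15 min.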

Work on `CC(=O)N1CCc2c(c(-c3cccc4cc(-c5ccc(CCC6CCN(c7ncc(C(=O)NC8C(C)(C)C(Oc9ccc(C#N)c(Cl)c9)C8(C)C)cn7)CC6)nc5)ncc34)nn2C)C1` (centres unmarked) [Compound 231, 2-[4-[2-[5-[8-(5-acetyl-1-methyl-6,7-dihydro-4H-pyrazolo[4,3-c]pyridin-3-yl)-3-isoquinolyl]-2-pyridyl]ethyl]-1-piperidyl]-N-[3-(3-chloro-4-cyano-phenoxy)-2,2,4,4-tetramethyl-cyclobutyl]pyrimidine-5-carboxamide] yielded a pIC50 (VCaP cells) of 9.00 to 10.00 and a pEC50 (AR / CBP ternary complex) of 7.00 to 8.00.

With `CN1C(=O)CCc2cc(N3CCCc4cc(-c5ccc(CCC6CCN(c7ncc(C(=O)NC8C(C)(C)C(Oc9ccc(C#N)c(Cl)c9)C8(C)C)cn7)CC6)nc5)c(C(F)F)cc43)ccc21` (centres unmarked) [Compound 239, N-[3-(3-chloro-4-cyano-phenoxy)-2,2,4,4-tetramethyl-cyclobutyl]-2-[4-[2-[5-[7-(difluoromethyl)-1-(1-methyl-2-oxo-3,4-dihydroquinolin-6-yl)-3,4-dihydro-2H-quinolin-6-yl]-2-pyridyl]ethyl]-1-piperidyl]pyrimidine-5-carboxamide] the pIC50 (VCaP cells) was 7.00 to 9.00 and the pEC50 (AR / CBP ternary complex) was > 9.00.

For `CC(=O)N1CCc2c(c(N3CCCc4cc(-c5cnn(C)c5)c(C(F)F)cc43)nn2C2CCN(C[C@@H]3CCN(c4ncc(C(=O)NC5C(C)(C)C(Oc6ccc(C#N)c(Cl)c6)C5(C)C)cn4)C[C@@H]3C)CC2)C1` (some centres unmarked) [Compound 363], the pIC50 (VCaP cells) was ≥ 10.00 and the pEC50 (AR / CBP ternary complex) was > 9.00.

With `CC(=O)N1CCc2c(c(Nc3ccc(-c4cnn(C)c4)cc3F)nn2C2CCN(CCN3CCN(c4ncc(C(=O)NC5C(C)(C)C(Oc6ccc(C#N)c(Cl)c6)C5(C)C)cn4)CC3)CC2)C1` (centres unmarked) [Compound 167, 2-[4-[2-[4-[5-acetyl-3-[2-fluoro-4-(1-methylpyrazol-4-yl)anilino]-6,7-dihydro-4H-pyrazolo[4,3-c]pyridin-1-yl]-1-piperidyl]ethyl]piperazin-1-yl]-N-[3-(3-chloro-4-cyano-phenoxy)-2,2,4,4-tetramethyl-cyclobutyl]pyrimidine-5-carboxamide] the pIC50 (VCaP cells) was 9.00 to 10.00 and the pEC50 (AR / CBP ternary complex) was > 9.00.

With `COc1cc(OC2C(C)(C)C(NC(=O)c3ccc(N4CC5(CC(N6CCC(n7nc(N8CCCc9cc(-c%10cnn(C)c%10)c(C(F)F)cc98)c8c7CCN(C(C)=O)C8)CC6)C5)C4)cc3)C2(C)C)ccc1C#N` (centres unmarked) [Compound 349, 4-[6-[4-[5-acetyl-3-[7-(difluoromethyl)-6-(1-methylpyrazol-4-yl)-3,4-dihydro-2H-quinolin-1-yl]-6,7-dihydro-4H-pyrazolo[4,3-c]pyridin-1-yl]-1-piperidyl]-2-azaspiro[3.3]heptan-2-yl]-N-[3-(4-cyano-3-methoxy-phenoxy)-2,2,4,4-tetramethyl-cyclobutyl]benzamide] the pIC50 (VCaP cells) was ≥ 10.00 and the pEC50 (AR / CBP ternary complex) was > 9.00.

For `COc1cc(OC2C(C)(C)C(NC(=O)c3ccc(N4CCN(C5CCN(c6ccc(-c7cc8c(cn7)N(c7nn(C9CCOCC9)c9c7CN(C(C)=O)CC9)CCC8)cn6)CC5)CC4)cc3)C2(C)C)ccc1C#N` (stereo not drawn) [Compound 323, 4-[4-[1-[5-[l-(5-acetyl-1-tetrahydropyran-4-yl-6,7-dihydro-4H-pyrazolo[4,3-c]pyridin-3-yl)-3,4-dihydro-2H-1,7-naphthyridin-6-yl]-2-pyridyl]-4-piperidyl]piperazin-1-yl]-N-[3-(4-cyano-3-methoxy-phenoxy)-2,2,4,4-tetramethyl-cyclobutyl]benzamide], the pIC50 (VCaP cells) was ≥ 10.00 and the pEC50 (AR / CBP ternary complex) was > 9.00.

For `CC(=O)N1CCc2c(c(-c3cccc4cc(-c5cnn(CC6CC7(C6)CN(c6ncc(C(=O)NC8C(C)(C)C(Oc9ccc(C#N)c(Cl)c9)C8(C)C)cn6)C7)c5)ncc34)nn2C2CCOCC2)C1` (centres unmarked) [Compound 223, 2-[6-[[4-[8-(5-acetyl-1-tetrahydropyran-4-yl-6,7-dihydro-4H-pyrazolo[4,3-c]pyridin-3-yl)-3-isoquinolyl]pyrazol-1-yl]methyl]-2-azaspiro[3.3]heptan-2-yl]-N-[3-(3-chloro-4-cyano-phenoxy)-2,2,4,4-tetramethyl-cyclobutyl]pyrimidine-5-carboxamide], the pIC50 (VCaP cells) was ≥ 10.00 and the pEC50 (AR / CBP ternary complex) was > 9.00.

With `CC(=O)N1CCc2c(c(N3CCCc4cc(-c5cnn(C)c5)c(C(F)F)cc43)nn2C2CCC(OC3CCN(c4ncc(C(=O)NC5C(C)(C)C(Oc6ccc(C#N)c(Cl)c6)C5(C)C)cn4)CC3)CC2)C1` (centres unmarked) [Compound 339, 2-[4-[4-[5-acetyl-3-[7-(difluoromethyl)-6-(1-methylpyrazol-4-yl)-3,4-dihydro-2H-quinolin-1-yl]-6,7-dihydro-4H-pyrazolo[4,3-c]pyridin-1-yl]cyclohexoxy]-1-piperidyl]-N-[3-(3-chloro-4-cyano-phenoxy)-2,2,4,4-tetramethyl-cyclobutyl]pyrimidine-5-carboxamide] the pIC50 (VCaP cells) was ≥ 10.00 and the pEC50 (AR / CBP ternary complex) was > 9.00.

With `CC(=O)N1CCc2c(c(N3CCCc4ccccc43)nn2C2CCN(C(=O)C3CCN(c4ncc(C(=O)NC5C(C)(C)C(Oc6ccc(C#N)c(Cl)c6)C5(C)C)cn4)CC3)CC2)C1` (centres unmarked) [Compound 129, 2-[4-[4-[5-acetyl-3-(3,4-dihydro-2H-quinolin-1-yl)-6,7-dihydro-4H-pyrazolo[4,3-c]pyridin-1-yl]piperidine-1-carbonyl]-1-piperidyl]-N-[3-(3-chloro-4-cyano-phenoxy)-2,2,4,4-tetramethyl-cyclobutyl]pyrimidine-5-carboxamide] the pIC50 (VCaP cells) was ≥ 10.00 and the pEC50 (AR / CBP ternary complex) was > 9.00.

For `CC(=O)N1CCc2c(c(-c3cccc4cc(-c5cnn(C)c5)ncc34)nn2C2CCN(CC3CCN(c4ncc(C(=O)NC5C(C)(C)C(Oc6ccc(C#N)c(Cl)c6)C5(C)C)cn4)CC3)CC2)C1` (centres unmarked) [Compound 136, 2-[4-[[4-[5-acetyl-3-[3-(1-methylpyrazol-4-yl)-8-isoquinolyl]-6,7-dihydro-4H-pyrazolo[4,3-c]pyridin-1-yl]-1-piperidyl]methyl]-1-piperidyl]-N-[3-(3-chloro-4-cyano-phenoxy)-2,2,4,4-tetramethyl-cyclobutyl]pyrimidine-5-carboxamide], the pIC50 (VCaP cells) was ≥ 10.00 and the pEC50 (AR / CBP ternary complex) was > 9.00.

For `C[C@@H]1CC(=O)Nc2cccc(-c3ccc4c(c3)c(-c3cnn(C)c3)nn4C3CCN(c4ncc(C(=O)NC5C(C)(C)C(Oc6ccc(C#N)c(Cl)c6)C5(C)C)cn4)CC3)c2N1` (stereo partly drawn) [Compound 60, N-[3-(3-chloro-4-cyano-phenoxy)-2,2,4,4-tetramethyl-cyclobutyl]-2-[4-[5-[(4R)-4-methyl-2-oxo-1,3,4,5-tetrahydro-1,5-benzodiazepin-6-yl]-3-(1-methylpyrazol-4-yl)indazol-1-yl]-1-piperidyl]pyrimidine-5-carboxamide], the pIC50 (VCaP cells) was < 7.00 and the pEC50 (AR / CBP ternary complex) was < 7.00.

In the case of `CC(=O)N1CCc2c(c(N3CCCc4cc(-c5cnn(C)c5)c(C(F)F)cc43)nn2CCCOC2CCN(c3ncc(C(=O)NC4C(C)(C)C(Oc5ccc(C#N)c(Cl)c5)C4(C)C)cn3)CC2)C1` (centres unmarked) [Compound 9, 2-[4-[3-[5-acetyl-3-[7-(difluoromethyl)-6-(1-methylpyrazol-4-yl)-3,4-dihydro-2H-quinolin-1-yl]-6,7-dihydro-4H-pyrazolo[4,3-c]pyridin-1-yl]propoxy]-1-piperidyl]-N-[3-(3-chloro-4-cyano-phenoxy)-2,2,4,4-tetramethyl-cyclobutyl]pyrimidine-5-carboxamide], the pIC50 (VCaP cells) was 9.00 to 10.00 and the pEC50 (AR / CBP ternary complex) was > 9.00.

For `COC1CN(c2ncc(C(=O)NC3C(C)(C)C(Oc4ccc(C#N)c(Cl)c4)C3(C)C)cn2)CCC1CN1CCC(n2nc(N3CCCc4cc(-c5cnn(C)c5)c(C(F)F)cc43)c3c2CCN(C(C)=O)C3)CC1` (centres unmarked) [Compound 331, 2-[4-[[4-[5-acetyl-3-[7-(difluoromethyl)-6-(1-methylpyrazol-4-yl)-3,4-dihydro-2H-quinolin-1-yl]-6,7-dihydro-4H-pyrazolo[4,3-c]pyridin-1-yl]-1-piperidyl]methyl]-3-methoxy-1-piperidyl]-N-[3-(3-chloro-4-cyano-phenoxy)-2,2,4,4-tetramethyl-cyclobutyl]pyrimidine-5-carboxamide], the pIC50 (VCaP cells) was 9.00 to 10.00 and the pEC50 (AR / CBP ternary complex) was > 9.00.

For `COc1cc(OC2C(C)(C)C(NC(=O)c3ccc(N4CCN(CCc5ccc(-c6cc7cccc(-c8nn(C9CCOCC9)c9c8CN(C(C)=O)CC9)c7cn6)cn5)CC4)cc3)C2(C)C)ccc1C#N` (centres unmarked) [Compound 250, 4-[4-[2-[5-[8-(5-acetyl-1-tetrahydropyran-4-yl-6,7-dihydro-4H-pyrazolo[4,3-c]pyridin-3-yl)-3-isoquinolyl]-2-pyridyl]ethyl]piperazin-1-yl]-N-[3-(4-cyano-3-methoxy-phenoxy)-2,2,4,4-tetramethyl-cyclobutyl]benzamide], the pIC50 (VCaP cells) was ≥ 10.00 and the pEC50 (AR / CBP ternary complex) was > 9.00.

For `COc1cc(OC2C(C)(C)C(NC(=O)c3ccc(N4CCC(CCc5ccc(-c6cc7cccc(-c8nn(C9CCOCC9)c9c8CN(C(C)=O)CC9)c7cn6)cn5)CC4)cc3)C2(C)C)ccc1C#N` (centres unmarked) [Compound 245, 4-[4-[2-[5-[8-(5-acetyl-1-tetrahydropyran-4-yl-6,7-dihydro-4H-pyrazolo[4,3-c]pyridin-3-yl)-3-isoquinolyl]-2-pyridyl]ethyl]-1-piperidyl]-N-[3-(4-cyano-3-methoxy-phenoxy)-2,2,4,4-tetramethyl-cyclobutyl]benzamide], the pIC50 (VCaP cells) was 9.00 to 10.00 and the pEC50 (AR / CBP ternary complex) was > 9.00.

`COc1cc(OC2C(C)(C)C(NC(=O)c3ccc(N4CCC(CN5CCC(n6nc(N7CCCc8cc(C#N)c(C(F)F)cc87)c7c6CCN(C(C)=O)C7)CC5)C(C)(C)C4)cc3)C2(C)C)ccc1C#N` (centres unmarked) [Compound 451, 4-[4-[[4-[5-acetyl-3-[6-cyano-7-(difluoromethyl)-3,4-dihydro-2H-quinolin-1-yl]-6,7-dihydro-4H-pyrazolo[4,3-c]pyridin-1-yl]-1-piperidyl]methyl]-3,3-dimethyl-1-piperidyl]-N-[3-(4-cyano-3-methoxy-phenoxy)-2,2,4,4-tetramethyl-cyclobutyl]benzamide] was tested, and the pIC50 (VCaP cells) was 9.00 to 10.00 and the pEC50 (AR / CBP ternary complex) was > 9.00.

From patent US20250129070A1, “BIFUNCTIONAL ANDROGEN RECEPTOR COMPOUNDS” (priority 2023, published 2025)
